Publication PMC9287416, “Externalized phosphatidylinositides on apoptotic cells are eat-me signals recognized by CD14” (Cell Death and Differentiation, 2022)
Read-outs that look alike come from different tables or passages of the source.

Target: T1, CD14 (Homo sapiens, UniProt P08571)
T1 construct: full-length human CD14 expressed in HEK293T cells, recombinant; His-tagged protein used in flow cytometry
T1 sequence (P08571 20-345): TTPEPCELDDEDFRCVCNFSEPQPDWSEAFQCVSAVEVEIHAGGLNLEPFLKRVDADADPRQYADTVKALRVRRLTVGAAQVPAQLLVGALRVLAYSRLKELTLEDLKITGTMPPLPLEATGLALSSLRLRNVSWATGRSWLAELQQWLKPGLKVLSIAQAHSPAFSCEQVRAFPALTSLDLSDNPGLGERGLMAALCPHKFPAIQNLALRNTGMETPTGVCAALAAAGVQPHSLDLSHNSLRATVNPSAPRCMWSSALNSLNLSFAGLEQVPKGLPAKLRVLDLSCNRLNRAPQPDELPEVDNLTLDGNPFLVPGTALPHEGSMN
Assay: isothermal titration calorimetry
Format: binding

| Compound | Kd | Kd (PI(3,4,5)P3 in liposomes) |
| --- | --- | --- |
| O=P(O)(O)O[C@H]1[C@H](OP(=O)(O)O)[C@@H](OP(=O)(O)O)[C@H](OP(=O)(O)O)[C@@H](OP(=O)(O)O)[C@H]1OP(=O)(O)O [IP6] | 6.2 ± 1.2 µM | – |
| PI(3,4,5)P3 | – | 5.6 ± 0.6 µM |
